Measurements taken from US8906852B2 (MethylGene Inc., priority 2010, dated 2014).

These compounds were tested against T1, VEGFR/KDR (Homo sapiens, UniProt P35968) (assay: VEGFR/KDR kinase inhibition, DELFIA assay). Settings: ATP 0.6 uM (2x Km), enzyme 5 nM.
T1 construct: made in house; host or cells: Sf9 cells (Spodoptera frugiperda), baculovirus
T1 sequence (P35968 806-1356): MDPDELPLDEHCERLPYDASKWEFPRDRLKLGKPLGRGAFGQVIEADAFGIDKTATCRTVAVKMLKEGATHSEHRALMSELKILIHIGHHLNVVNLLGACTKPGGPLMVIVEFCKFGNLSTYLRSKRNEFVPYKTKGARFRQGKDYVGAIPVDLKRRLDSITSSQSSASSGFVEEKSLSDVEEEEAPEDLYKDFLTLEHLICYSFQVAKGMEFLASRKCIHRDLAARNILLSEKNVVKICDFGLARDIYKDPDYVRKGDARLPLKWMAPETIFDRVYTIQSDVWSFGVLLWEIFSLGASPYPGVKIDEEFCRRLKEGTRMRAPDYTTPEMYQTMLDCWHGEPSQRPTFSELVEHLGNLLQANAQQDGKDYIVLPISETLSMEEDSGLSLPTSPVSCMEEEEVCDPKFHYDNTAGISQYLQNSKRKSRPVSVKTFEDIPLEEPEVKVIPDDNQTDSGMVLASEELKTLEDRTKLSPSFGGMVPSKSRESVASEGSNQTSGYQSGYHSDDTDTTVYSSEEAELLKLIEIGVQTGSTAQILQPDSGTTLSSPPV
Format: biochemical
In short: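 DELFIA time-resolved fluorescence readout using Europium-tagged anti-phosphotyrosine antibody after EDTA stop. Kinase reaction on plate-bound poly(Glu4,Tyr) ran 10-30 min at 30° C with 5 nM enzyme and 0.6 uM ATP (2× Km), following 4 min on-ice pre-incubation with compound; IC50 over a concentration range.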
With `O=C(Nc1ccc(Oc2ccnc3cc(-c4cn(CC(=O)N5CCOCC5)nn4)sc23)c(F)c1)NC1CC1` [Compound 368] the IC50 was less than 0.05 µM. For `COC(=O)CCn1cc(-c2cc3nccc(Oc4ccc(NC(=O)NC5CC5)cc4F)c3s2)nn1` [Compound 369], the IC50 was less than 0.05 µM. Compound `O=C(Nc1ccc(Oc2ccnc3cc(-c4cn(CC(=O)N5CCCCC5)nn4)sc23)c(F)c1)NC1CC1` [Compound 372, 1-cyclopropyl-3-(3-fluoro-4-(2-(1-(2-oxo-2-(piperidin-1-yl)ethyl)-1H-1,2,3-triazol-4-yl)thieno[3,2-b]pyridin-7-yloxy)phenyl)urea] has an IC50 of less than 0.05 µM. `O=C(Nc1ccc(Oc2ccnc3cc(-c4cn(CC(=O)N5CCCC5)nn4)sc23)c(F)c1)NC1CC1` [Compound 373] was tested, and the IC50 was less than 0.05 µM. Work on `CCOC(=O)Cc1csc(NC(=O)Cn2cc(-c3cc4nccc(Oc5ccc(NC(=O)NC6CC6)cc5F)c4s3)nn2)n1` [Compound 375] yielded an IC50 of less than 0.05 µM. `CN(C)[C@H]1CCN(C(=O)Cn2cc(-c3cc4nccc(Oc5ccc(NC(=O)NC6CC6)cc5F)c4s3)nn2)C1` [Compound 376] was tested, and the IC50 was less than 0.05 µM. `O=C(Nc1ccc(Oc2ccnc3cc(-c4cn(CCC(=O)N5CCOCC5)nn4)sc23)c(F)c1)NC1CC1` [Compound 377] was tested, and the IC50 was less than 0.05 µM. For `CN1CCN(C(=O)CCn2cc(-c3cc4nccc(Oc5ccc(NC(=O)NC6CC6)cc5F)c4s3)nn2)CC1` [Compound 378], the IC50 was less than 0.05 µM. `O=C(Nc1ccc(Oc2ccnc3cc(-c4cn(CCC(=O)N5CCCCC5)nn4)sc23)c(F)c1)NC1CC1` [Compound 379] showed an IC50 of less than 0.05 µM. `O=C(Nc1ccc(Oc2ccnc3cc(-c4cn(CCC(=O)N5CCCC5)nn4)sc23)c(F)c1)NC1CC1` [Compound 380] showed an IC50 of less than 0.05 µM. `O=C(Cn1cc(-c2cc3nccc(Oc4ccc(NC(=O)NC5CC5)cc4F)c3s2)nn1)NCc1cccnc1` [Compound 381] gave an IC50 of less than 0.05 µM. With `CC(C)(C)OC(=O)NC1CCN(C(=O)Cn2cc(-c3cc4nccc(Oc5ccc(NC(=O)NC6CC6)cc5F)c4s3)nn2)C1` (stereo not shown) [Compound 382] the IC50 was less than 0.05 µM. `O=C(Cn1cc(-c2cc3nccc(Oc4ccc(NC(=O)NC5CC5)cc4F)c3s2)nn1)NCc1ccccn1` [Compound 383] showed an IC50 of less than 0.05 µM. In the case of `CN(C)CCCn1cc(-c2cc3nccc(Oc4ccc(NC(=O)NC5CC5)cc4F)c3s2)nn1` [Compound 384], the IC50 is reported as less than 0.05 µM. In the case of `O=C(Nc1ccc(Oc2ccnc3cc(-c4cn(CCCN5CCOCC5)nn4)sc23)c(F)c1)NC1CC1` [Compound 385], the IC50 is reported as less than 0.05 µM. `CC(C)(C)OC(=O)NC1CCN(C(=O)Cn2cc(-c3cc4nccc(Oc5ccc(NC(=O)NC6CC6)cc5F)c4s3)nn2)CC1` [Compound 387] was tested, and the IC50 was less than 0.05 µM. `CC(C)(C)OC(=O)N1CCN(C(=O)Cn2cc(-c3cc4nccc(Oc5ccc(NC(=O)NC6CC6)cc5F)c4s3)nn2)CC1` [Compound 388] was tested, and the IC50 was less than 0.05 µM. `O=C(Nc1ccc(Oc2ccnc3cc(-c4cn(CC(=O)N5CCNCC5)nn4)sc23)c(F)c1)NC1CC1` [Compound 389, 1-Cyclopropyl-3-(3-fluoro-4-(2-(1-(2-oxo-2-(piperazin-1-yl)ethyl)-1H-1,2,3-triazol-4-yl)thieno[3,2-b]pyridin-7-yloxy)phenyl)urea] showed an IC50 of less than 0.05 µM. With `CC(=O)OCC(=O)N1CCN(C(=O)Cn2cc(-c3cc4nccc(Oc5ccc(NC(=O)NC6CC6)cc5F)c4s3)nn2)CC1` [Compound 390] the IC50 was less than 0.05 µM. For `O=C(Nc1ccc(Oc2ccnc3cc(-c4cn(CC(=O)N5CCN(C(=O)CO)CC5)nn4)sc23)c(F)c1)NC1CC1` [Compound 391], the IC50 was less than 0.05 µM. `CC(C)(C)OC(=O)NCC(=O)N1CCN(C(=O)Cn2cc(-c3cc4nccc(Oc5ccc(NC(=O)NC6CC6)cc5F)c4s3)nn2)CC1` [Compound 392] gave an IC50 of less than 0.05 µM. In the case of `CCNC(=O)N1CCN(C(=O)Cn2cc(-c3cc4nccc(Oc5ccc(NC(=O)NC6CC6)cc5F)c4s3)nn2)CC1` [Compound 394], the IC50 is reported as less than 0.05 µM. Work on `NC1CCN(C(=O)Cn2cc(-c3cc4nccc(Oc5ccc(NC(=O)NC6CC6)cc5F)c4s3)nn2)CC1` [Compound 395] yielded an IC50 of less than 0.05 µM. `O=C(Nc1ccc(Oc2ccnc3cc(-c4ccc(C(=O)N5CCN(CCOCCO)CC5)cn4)sc23)c(F)c1)NC1CC1` [Compound 396] gave an IC50 of less than 0.05 µM. For `CN(C(=O)OC(C)(C)C)C1CCN(C(=O)c2ccc(-c3cc4nccc(Oc5ccc(NC(=O)NC6CC6)cc5F)c4s3)nc2)CC1` [Compound 397], the IC50 was less than 0.05 µM. `CNC1CCN(C(=O)c2ccc(-c3cc4nccc(Oc5ccc(NC(=O)NC6CC6)cc5F)c4s3)nc2)CC1` [Compound 399] gave an IC50 of less than 0.05 µM. `NC1CCN(C(=O)c2ccc(-c3cc4nccc(Oc5ccc(NC(=O)NC6CC6)cc5F)c4s3)nc2)CC1` [Compound 400] showed an IC50 of less than 0.05 µM. `CNC1CCN(Cc2ccc(-c3cc4nccc(Oc5ccc(NC(=O)NC6CC6)cc5F)c4s3)nc2)CC1` [Compound 401] was tested, and the IC50 was less than 0.05 µM. Work on `NC1CN(Cc2ccc(-c3cc4nccc(Oc5ccc(NC(=O)NC6CC6)cc5F)c4s3)nc2)C1` [Compound 402] yielded an IC50 of less than 0.05 µM. Work on `O=C(Nc1ccc(Oc2ccnc3cc(-c4ccc(COC5CNC5)cn4)sc23)c(F)c1)NC1CC1` [Compound 405, 1-(4-(2-(5-((Azetidin-3-yloxy)methyl)pyridin-2-yl)thieno[3,2-b]pyridin-7-yloxy)-3-fluorophenyl)-3-cyclopropylurea] yielded an IC50 of less than 0.05 µM. `CCNC(=O)N(C)C1CCN(C(=O)c2ccc(-c3cc4nccc(Oc5ccc(NC(=O)NC6CC6)cc5F)c4s3)nc2)CC1` [Compound 406] showed an IC50 of less than 0.05 µM. With `CCNC(=O)N(C)C1CCN(Cc2ccc(-c3cc4nccc(Oc5ccc(NC(=O)NC6CC6)cc5F)c4s3)nc2)CC1` [Compound 407] the IC50 was less than 0.05 µM. Work on `CCNC(=O)NC1CN(Cc2ccc(-c3cc4nccc(Oc5ccc(NC(=O)NC6CC6)cc5F)c4s3)nc2)C1` [Compound 408] yielded an IC50 of less than 0.05 µM. `CCNC(=O)N1CC(OCc2ccc(-c3cc4nccc(Oc5ccc(NC(=O)NC6CC6)cc5F)c4s3)nc2)C1` [Compound 409] gave an IC50 of less than 0.05 µM. `CNC(=O)N(C)C1CCN(Cc2ccc(-c3cc4nccc(Oc5ccc(NC(=O)NC6CC6)cc5F)c4s3)nc2)CC1` [Compound 410] gave an IC50 of less than 0.05 µM. With `CC(=O)OCC(=O)N(C)C1CCN(Cc2ccc(-c3cc4nccc(Oc5ccc(NC(=O)NC6CC6)cc5F)c4s3)nc2)CC1` [Compound 411] the IC50 was less than 0.05 µM. In the case of `C=CC(=O)N(C)C1CCN(Cc2ccc(-c3cc4nccc(Oc5ccc(NC(=O)NC6CC6)cc5F)c4s3)nc2)CC1` [Compound 412], the IC50 is reported as less than 0.05 µM. Compound `CN(C(=O)CO)C1CCN(Cc2ccc(-c3cc4nccc(Oc5ccc(NC(=O)NC6CC6)cc5F)c4s3)nc2)CC1` [Compound 413] has an IC50 of less than 0.05 µM. For `O=C(CO)NC1CN(Cc2ccc(-c3cc4nccc(Oc5ccc(NC(=O)NC6CC6)cc5F)c4s3)nc2)C1` [Compound 414], the IC50 was less than 0.05 µM. `COCCN(C)C1CCN(Cc2ccc(-c3cc4nccc(Oc5ccc(NC(=O)NC6CC6)cc5F)c4s3)nc2)CC1` [Compound 416] gave an IC50 of less than 0.05 µM. In the case of `CN(CCO)C1CCN(Cc2ccc(-c3cc4nccc(Oc5ccc(NC(=O)NC6CC6)cc5F)c4s3)nc2)CC1` [Compound 417], the IC50 is reported as less than 0.05 µM. `COCCOCCOCCOCCN(C)C1CCN(Cc2ccc(-c3cc4nccc(Oc5ccc(NC(=O)NC6CC6)cc5F)c4s3)nc2)CC1` [Compound 418] showed an IC50 of less than 0.05 µM. With `O=C(Nc1ccc(Oc2ccnc3cc(-c4ccc(CN5CCN(CCF)CC5)cn4)sc23)c(F)c1)NC1CC1` [Compound 420, 1-Cyclopropyl-3-(3-fluoro-4-(2-(5-((4-(2-fluoroethyl)piperazin-1-yl)methyl)pyridin-2-yl)thieno[3,2-b]pyridin-7-yloxy)phenyl)urea] the IC50 was less than 0.05 µM. `CN(CCF)C1CCN(Cc2ccc(-c3cc4nccc(Oc5ccc(NC(=O)NC6CC6)cc5F)c4s3)nc2)CC1` [Compound 421, 1-Cyclopropyl-3-(3-fluoro-4-(2-(5-((4-((2-fluoroethyl)(methyl)amino)piperidin-1-yl)methyl)pyridin-2-yl)thieno[3,2-b]pyridin-7-yloxy)phenyl)urea] gave an IC50 of less than 0.05 µM. `CCOC(=O)CN(C)C1CCN(Cc2ccc(-c3cc4nccc(Oc5ccc(NC(=O)NC6CC6)cc5F)c4s3)nc2)CC1` [Compound 422, Ethyl 2-((1-((6-(7-(4-(3-cyclopropylureido)-2-fluorophenoxy)thieno[3,2-b]pyridin-2-yl)pyridin-3-yl)methyl)piperidin-4-yl)(methyl)amino)acetate] showed an IC50 of less than 0.05 µM. `CN(CC(=O)O)C1CCN(Cc2ccc(-c3cc4nccc(Oc5ccc(NC(=O)NC6CC6)cc5F)c4s3)nc2)CC1` [Compound 423, 2-((1-((6-(7-(4-(3-Cyclopropylureido)-2-fluorophenoxy)thieno[3,2-b]pyridin-2-yl)pyridin-3-yl)methyl)piperidin-4-yl)(methyl)amino)acetic acid] showed an IC50 of less than 0.05 µM. `CN(CCC(=O)O)C1CCN(Cc2ccc(-c3cc4nccc(Oc5ccc(NC(=O)NC6CC6)cc5F)c4s3)nc2)CC1` [Compound 424, 3-((1-((6-(7-(4-(3-Cyclopropylureido)-2-fluorophenoxy)thieno[3,2-b]pyridin-2-yl)pyridin-3-yl)methyl)piperidin-4-yl)(methyl)amino)propanoic acid] showed an IC50 of less than 0.05 µM. `O=C(O)CNC(=O)NC1CCN(Cc2ccc(-c3cc4nccc(Oc5ccc(NC(=O)NC6CC6)cc5F)c4s3)nc2)CC1` [Compound 426, 2-(3-(1-((6-(7-(4-(3-Cyclopropylureido)-2-fluorophenoxy)thieno[3,2-b]pyridin-2-yl)pyridin-3-yl)methyl)piperidin-4-yl)ureido)acetic acid] gave an IC50 of less than 0.05 µM. `CN(C(=O)NCC(=O)O)C1CCN(Cc2ccc(-c3cc4nccc(Oc5ccc(NC(=O)NC6CC6)cc5F)c4s3)nc2)CC1` [Compound 427] was tested, and the IC50 was less than 0.05 µM. For `O=C(O)CNC(=O)NC1CN(Cc2ccc(-c3cc4nccc(Oc5ccc(NC(=O)NC6CC6)cc5F)c4s3)nc2)C1` [Compound 428], the IC50 was less than 0.05 µM. `O=C(O)CCNC(=O)NC1CCN(Cc2ccc(-c3cc4nccc(Oc5ccc(NC(=O)NC6CC6)cc5F)c4s3)nc2)CC1` [Compound 429] gave an IC50 of no less than 0.25 µM. In the case of `CCNC(=O)N1CC(N(CC(=O)O)Cc2ccc(-c3cc4nccc(Oc5ccc(NC(=O)NC6CC6)cc5F)c4s3)nc2)C1` [Compound 434, 2-(((6-(7-(4-(3-Cyclopropylureido)-2-fluorophenoxy)thieno[3,2-b]pyridin-2-yl)pyridin-3-yl)methyl)(1-(ethylcarbamoyl)azetidin-3-yl)-amino)acetic acid], the IC50 is reported as less than 0.05 µM.
